Laboratory results: patent US10329324B2 (viDA Therapeutics Inc., priority 2013, dated 2019)
Like-named read-outs stand apart in the source and are kept apart here.

Key:
human Granzyme B (hGzmB) = target: T1, human Granzyme B (hGzmB) (Homo sapiens, UniProt P10144); experiment: Human Granzyme B enzymatic inhibition assay (fluorogenic, kinetic); type: biochemical; settings: activity codes, Table 7; read-out: IC50 Activity Range
T1 construct: purchased Froelich Lab, Northshore University Health Systems Research Institute, Evanston, Ill., USA
T1 sequence (P10144 21-247): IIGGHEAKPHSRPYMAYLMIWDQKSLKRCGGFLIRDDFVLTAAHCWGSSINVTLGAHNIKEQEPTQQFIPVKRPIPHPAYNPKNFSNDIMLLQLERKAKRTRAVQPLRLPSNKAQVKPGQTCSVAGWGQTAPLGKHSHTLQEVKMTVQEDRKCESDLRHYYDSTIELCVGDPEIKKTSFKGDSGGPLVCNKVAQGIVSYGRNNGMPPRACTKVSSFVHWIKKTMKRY
Procedure, shortened: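 Human Granzyme B preincubated with compound for 30 min total (5 min shaking, 20 min bench, then reaction temperature). Fluorogenic substrate added and read kinetically, 25 cycles at 1-min intervals. Percent inhibition at one or two concentrations or 8–12-point 3-fold dose response from 20 uM, replicates, with IC50 by non-linear regression.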

[1] = Kinetic solubility determination in PBS; type: physicochemical; settings: PBS 1X pH 7.4, 2.0% DMSO, 24 hour incubation at ambient temperature; for solubility at 24 h: phosphate buffered saline (PBS 1×), 21 °C, pH 7.4, aqueous buffer, kinetic from dmso stock
Procedure, shortened: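 DMSO stocks were diluted into PBS (1×) pH 7.4 to 2.0% final DMSO and a maximum theoretical concentration of typically 200 μM. After 24 hour incubation at ambient temperature (20.5-21.7° C.), samples were vacuum filtered. The filtrate was quantified by chemiluminescent nitrogen detection against a nitrogen calibration curve, with background-corrected values given in μM and μg/mL.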

GzmB = GzmB (Homo sapiens, UniProt P10144); experiment: Inhibition of fibronectin cleavage by GzmB; type: biochemical; settings: 20 nM granzyme B, labeled fibronectin; for inhibition at 0.62 µM: 0.62 uM inhibitor, read-out: Percent Inhibition at Inhibitor Concentration 0.62 uM; for inhibition at 5.56 µM: 5.56 uM inhibitor, read-out: Percent Inhibition at Inhibitor Concentration 5.56 uM; for inhibition at 50 µM: 50 uM inhibitor, read-out: Percent Inhibition at Inhibitor Concentration 50 uM
Chain of GzmB (P10144 21-247): as above
Protocol: Black, 96 well high-binding assay plates (Griener Bio-one) were treated overnight at 4° C. with 40 uL of 8 ug/mL Hilyte Fluor 488 labeled Fibronectin (Cytoskeleton, Inc). After fibronectin coating, plates were washed 3 times in buffer (20 mM Tris-HCl, pH 7.4, 20 mM NaCl) then once with granzyme B assay buffer (50 mM HEPES, pH 7.5, 0.1% CHAPS). After washing, 50 uL of granzyme B assay buffer was added to each fibronectin-coated well. In a separate non-binding 96 well assay plate 5 uL of 20× inhibitor serial dilution stocks were added to 45 uL of 2.22×GzmB mix to establish inhibition (enzyme/inhibitor mixes were all prepared in granzyme B assay buffer and were incubated first at room temperature for 20 minutes, then at 30° C. for another 10 minutes). After incubation, 50 uL of this 2× enzyme/inhibitor mix was added to the corresponding coated well to initiate fibronectin cleavage (20 nM final granzyme B concentration, 8-point inhibitor dilution series starting at 50 uM). The assay was conducted at 30° C. in the TECAN plate reader (TECAN INFINITE® M1000 Pro), which was programmed to monitor the kinetic fluorescence polarization signal (filter set Ex/Em 470 nm/527 nm) with readings taken every minute, for 1 hour. Proteolytic activity was evaluated as the rate of fluorescence enhancement in the parallel emission over the linear range of the reaction. % Inhibition values were calculated from assay controls and the resulting date is shown in Table 8.

[2] = read-out: Solubility in aqueous PBS Buffer (1X, pH 7.4)
[3] = read-out: Solubility in aqueous PBS Buffer (1X, pH 7.4), ug/mL

| Structure (SMILES) | IC50 (human Granzyme B (hGzmB)) | solubility at 24 h [1, 2] | solubility at 24 h [1, 3] | inhibition at 0.62 µM (GzmB) | inhibition at 5.56 µM (GzmB) | inhibition at 50 µM (GzmB) | Solubility in aqueous PBS Buffer (1X, pH 7.4), uM [1] | Solubility in aqueous PBS Buffer (1X, pH 7.4), ug/mL [1] |
| --- | --- | --- | --- | --- | --- | --- | --- | --- |
| CC[C@H](C)[C@H](NC(=O)CCC(=O)O)C(=O)NCC(=O)N1c2ccccc2C[C@H]1C(=O)NCc1nn[nH]n1 [Example A13, 3-{[(1S,2S)-2-Methyl-1-({2-Oxo-2-[(2S)-2-[(2H-1,2,3,4-Tetrazol-5-Ylmethyl)Carbamoyl]-2,3-Dihydro-1H-Indol-1-Yl]Ethyl}Carbamoyl)Butyl]Carbamoyl}Propanoic Acid] | < 100 nM | > 750 µM | > 386 µg/mL | 11% | 52% | 82% |  |  |
| CC[C@H](C)[C@H](NC(=O)C1CC=CCC1C(=O)O)C(=O)NCC(=O)N1c2ccccc2C[C@H]1C(=O)NCc1nn[nH]n1 (single isomer, unassigned) [Example A21-1] | < 100 nM | > 750 µM | > 425 µg/mL |  |  |  |  |  |

Now from value to compound:

| IC50 (human Granzyme B (hGzmB)) | solubility at 24 h [1, 2] | solubility at 24 h [1, 3] | inhibition at 0.62 µM (GzmB) | inhibition at 5.56 µM (GzmB) | inhibition at 50 µM (GzmB) | Solubility in aqueous PBS Buffer (1X, pH 7.4), uM [1] | Solubility in aqueous PBS Buffer (1X, pH 7.4), ug/mL [1] | Structure (SMILES) |
| --- | --- | --- | --- | --- | --- | --- | --- | --- |
| < 100 nM | > 750 µM | > 393 µg/mL | 45% | 79% | 98% |  |  | CC[C@H](C)[C@H](NC(=O)Cc1nn[nH]n1)C(=O)NCC(=O)N1c2ccccc2C[C@H]1C(=O)NCc1nn[nH]n1 [Example A28, (2S)-1-{2-[(2S,3S)-3-Methyl-2-[2-(2H-1,2,3,4-Tetrazol-5-Yl)Acetamido]Pentanamido]Acetyl}-N-(2H-1,2,3,4-Tetrazol-5-Ylmethyl)-2,3-Dihydro-1H-Indole-2-Carboxamide] |
| < 100 nM | 53 µM | 31 µg/mL | 57% | 96% | 102% |  |  | CC[C@H](C)[C@H](NC(=O)Cc1csc2ccccc12)C(=O)NCC(=O)N1c2ccccc2C[C@H]1C(=O)NCc1nn[nH]n1 [Example A27, (2S)-1-{2-[(2S,3S)-2-[2-(1-Benzothiophen-3-Yl)Acetamido]-3-Methylpentanamido]Acetyl}-N-(2H-1,2,3,4-Tetrazol-5-Ylmethyl)-2,3-Dihydro-1H-Indole-2-Carboxamide] |
| < 100 nM |  |  |  |  |  | >750 uM | >396 ug/mL | CC[C@H](C)[C@H](NC(=O)C(C)CC(=O)O)C(=O)NCC(=O)N1c2ccccc2C[C@H]1C(=O)NCc1nn[nH]n1 (single isomer, unassigned) [Example A30-2] |
